The source of these data is ChEMBL document CHEMBL1152391, “Development of a selective and potent radioactive ligand for histamine H(3) receptors: A compound potentially useful for receptor occupancy studies” (Bioorg Med Chem Lett, 2009).

Calls of active or inactive are those of the source. The calls are words filed in the database; no cut-off is given here. Where only a bound is given, the exact number is not on record here.

Data set [1] deals with T1, Histamine H3 receptor (Mus musculus, UniProt P58406). As to the kind of experiment: biochemical.
The target of data set [2] is T1, Histamine H3 receptor. As to the kind of experiment: Binding affinity to mouse histamine H3 receptor overexpressed in HEK293 cells. The data set is classed as cell-based.
Data set [3] in a line: Lipophilicity, log d at pH 7.4. The format is physicochemical. Conditions: buffer.
Data set [4] has as its target T1, Histamine H3 receptor. Kind of data set: Binding affinity to histamine H3 receptor in wild type mouse brain membrane. The format is cell membranes.
The target of data set [5] is Histamine H3 receptor (Mus musculus) (UniProt P58406). Kind of data set: Inverse agonist activity at mouse histamine H3 receptor overexpressed in HEK293 cells by [35S]GTPgammaS binding assay relative to basal level. The format is functional, cell-based. Conditions: concentration not given here. Background: Binding of GTPγS marks nucleotide exchange on a G protein.
Another data set concerns the target Histamine H1 receptor (Homo sapiens, UniProt P35367). Kind of data set: Inhibition of histamine H1 receptor.
In data set [6] the test system is Brain. As to the kind of experiment: Drug level in Sprague-Dawley rat brain at 10 mg/kg, po after 2 hrs. Conditions: in vivo. Also noted: dose 10 mg/kg, route oral. The format is ADME, organism-based.
For data set [7], the target named is Histamine H3 receptor (Rattus norvegicus, UniProt Q9QYN8). As to the kind of experiment: Binding affinity to rat histamine H3 receptor by competitive binding assay.
A further data set addresses Histamine H4 receptor (Homo sapiens, UniProt Q9H3N8). Kind of data set: Inhibition of histamine H4 receptor.
The target in data set [8] is T1, Histamine H3 receptor. Kind of data set: Inverse agonist activity at mouse histamine H3 receptor overexpressed in HEK293 cells by [35S]GTPgammaS binding assay. The data set is classed as functional, cell-based.
The test system of data set [9] is Brain. As to the kind of experiment: Ex vivo binding affinity to histamine H3 receptor in wild type mouse coronal brain sections at 3 nM after 30 mins by receptor occupancy assay. The format is functional, tissue-based. Conditions: tested as the 3H-labelled form.
A short description of data set [10]: Plasma concentration in Sprague-Dawley rat at 10 mg/kg, po after 2 hrs. The format is ADME, organism-based. The arrangement: dose 10 mg/kg, route oral.
The nature of data set [11]: Drug level in Sprague-Dawley rat cerebrospinal fluid at 10 mg/kg, po after 2 hrs. The format is ADME, organism-based. Also noted: dose 10 mg/kg, route oral. Conditions: read-out: Drug uptake.
Another data set concerns the target Histamine H2 receptor (Homo sapiens, UniProt P25021). Kind of data set: Inhibition of histamine H2 receptor.

T1 sequence (P58406 whole entry): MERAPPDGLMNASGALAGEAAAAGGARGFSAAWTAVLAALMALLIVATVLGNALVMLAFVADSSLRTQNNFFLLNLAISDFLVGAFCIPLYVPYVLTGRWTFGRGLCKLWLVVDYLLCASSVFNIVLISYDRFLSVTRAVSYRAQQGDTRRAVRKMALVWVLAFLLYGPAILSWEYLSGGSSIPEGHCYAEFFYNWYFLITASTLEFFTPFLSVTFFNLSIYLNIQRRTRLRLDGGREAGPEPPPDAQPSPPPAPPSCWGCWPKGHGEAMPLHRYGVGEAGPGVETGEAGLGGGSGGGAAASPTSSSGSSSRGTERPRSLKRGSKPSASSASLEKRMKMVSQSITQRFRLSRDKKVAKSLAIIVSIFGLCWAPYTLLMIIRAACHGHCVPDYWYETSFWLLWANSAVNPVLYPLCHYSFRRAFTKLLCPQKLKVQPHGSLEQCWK
Histamine H3 receptor (Mus musculus), sequence (P58406 whole entry): as above
Histamine H1 receptor, sequence (P35367 whole entry): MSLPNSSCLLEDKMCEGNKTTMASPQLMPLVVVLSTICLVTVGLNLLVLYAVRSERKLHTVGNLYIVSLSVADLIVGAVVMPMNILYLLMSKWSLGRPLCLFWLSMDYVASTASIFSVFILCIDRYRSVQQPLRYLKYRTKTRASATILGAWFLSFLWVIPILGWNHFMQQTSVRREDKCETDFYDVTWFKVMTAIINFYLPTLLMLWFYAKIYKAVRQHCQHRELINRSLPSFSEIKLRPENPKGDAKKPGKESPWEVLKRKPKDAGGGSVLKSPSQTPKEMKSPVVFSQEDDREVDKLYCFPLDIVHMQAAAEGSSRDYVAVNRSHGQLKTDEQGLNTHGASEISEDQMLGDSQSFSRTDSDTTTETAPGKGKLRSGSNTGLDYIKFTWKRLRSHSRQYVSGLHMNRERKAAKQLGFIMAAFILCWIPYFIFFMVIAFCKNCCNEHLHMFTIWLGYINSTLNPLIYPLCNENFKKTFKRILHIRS
Histamine H2 receptor, sequence (P25021 whole entry): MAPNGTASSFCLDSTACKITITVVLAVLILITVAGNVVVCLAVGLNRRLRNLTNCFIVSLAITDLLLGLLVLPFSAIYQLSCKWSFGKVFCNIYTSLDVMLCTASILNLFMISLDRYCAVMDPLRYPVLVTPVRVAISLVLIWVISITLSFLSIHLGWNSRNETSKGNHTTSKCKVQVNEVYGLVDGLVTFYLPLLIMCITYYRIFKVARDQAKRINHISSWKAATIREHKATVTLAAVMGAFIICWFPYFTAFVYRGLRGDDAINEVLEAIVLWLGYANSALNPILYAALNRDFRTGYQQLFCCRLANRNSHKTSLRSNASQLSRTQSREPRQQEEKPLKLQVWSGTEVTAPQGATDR
Histamine H3 receptor (Rattus norvegicus, UniProt Q9QYN8), sequence (Q9QYN8 whole entry): as the sequence (P58406 whole entry) above, with A15T, T286A, G290A, H387R, V389I counted along it
Histamine H4 receptor, sequence (Q9H3N8 whole entry): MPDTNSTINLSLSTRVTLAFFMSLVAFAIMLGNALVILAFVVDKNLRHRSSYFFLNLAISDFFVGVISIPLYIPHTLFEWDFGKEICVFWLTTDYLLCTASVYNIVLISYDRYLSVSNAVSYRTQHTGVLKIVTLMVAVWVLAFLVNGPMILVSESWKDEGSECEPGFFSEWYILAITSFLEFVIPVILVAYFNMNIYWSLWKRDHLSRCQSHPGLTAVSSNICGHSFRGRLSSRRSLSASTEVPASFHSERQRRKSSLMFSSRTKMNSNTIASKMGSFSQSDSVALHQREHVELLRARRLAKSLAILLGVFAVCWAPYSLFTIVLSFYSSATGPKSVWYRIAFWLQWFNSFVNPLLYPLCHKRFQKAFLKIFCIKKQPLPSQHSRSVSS

For `CNCCc1c[nH]cn1`, affinity on Histamine H3 receptor [1] was put at a Ki of 19 nM. In other words, the double-digit nanomolar range.

Turning to `[3H]C([3H])([3H])n1c(-c2ccc(OCCCN3CCCC3)cc2)nc2ccccc2c1=O`, the Kd on Histamine H3 receptor [2] came out at 2.6 nM; at Histamine H3 receptor [4], 3.1 nM. The compound further showed a logD in data set [3] of 1.2.

As for `N=C(NCc1ccc(Cl)cc1)SCCCc1c[nH]cn1`, the inhibition in data set [5] amounted to 14%.

`NCCc1c[nH]cn1` [HISTAMINE]: the Ki on Histamine H3 receptor [1] came to 68 nM.

In the case of `N=C(N)SCCc1cnc[nH]1` [IMETIT], the Ki at Histamine H3 receptor [1] was determined as 2 nM.

For the compound `Cn1c(-c2ccc(OCCCN3CCCC3)cc2)nc2ccccc2c1=O`, the IC50 against Histamine H1 receptor, on Histamine H4 receptor and on Histamine H2 receptor was greater than 10000 nM each time. The Drug uptake with Brain [6] came to 2.22 nmol/g. Also, the Ki was 12 nM on Histamine H3 receptor [7] and 2.4 nM at Histamine H3 receptor [1]. On Histamine H3 receptor [8], this compound came in with an EC50 of 9.6 nM. For the same compound, the outcome with Brain [9] was Active. Also, the concentration at 2 h in data set [10] came to 1360 nM; in data set [11], 134 nM. Besides, the inhibition in data set [5] came to 24%.

Regarding `NC(=NCc1ccc(Cl)cc1)SCCCc1cnc[nH]1` [CLOBENPROPIT], on Histamine H3 receptor [8], the EC50 came to 1.7 nM.

On Histamine H3 receptor [8], `S=C(NC1CCCCC1)N1CCC(c2cnc[nH]2)CC1` [THIOPERAMIDE] returned an EC50 of 11 nM. This compound had a Ki on Histamine H3 receptor [1] of 4.8 nM. The compound also showed an inhibition in data set [5] of 27%.

As a reminder, the Ki is a dissociation constant, usually derived from enzyme kinetics or from competition with a known ligand. Higher therefore signals lower affinity. For orientation: Kd means the concentration at which binding is half-saturated. Low values mean higher affinity, high ones lower affinity. Usually logD stands for lipophilicity at a set pH, counting ionised and neutral species. Low values mean lower lipophilicity, high ones higher lipophilicity. In general, inhibition refers to the share of the control response that was lost under treatment. Higher therefore signals strong suppression. Broadly, the IC50 is the point on the concentration scale where inhibition reaches its midpoint. A low value points to higher potency. What is called EC50 is the midpoint of the concentration-response curve.
